Test results reported in publication PMC5382548 (Scientific Reports, 2015).

How the values were obtained:
[1] = test system: mouse KRAS promoter; parameters: method as in PMID 16687659; conditions: 3–20 μM 24 hours prior to transfection; cited from earlier work
[2] = test system: SW620 metastatic colon cancer cells; experiment: Guava ViaCount assay, SW620; type: cell-based, human; conditions: IC65 concentration, 72 h
Excerpt: The ability of IQcs to induce cell death in colon cancer cell lines with different genotypes (HCT116 and SW620) and in the non-malignant cell line HEK293T was studied by a Guava Via Count assay and compared with the behaviour of 5-FU and TMPyP4 at equitoxic concentrations (IC50 and IC65). Results in Figure 7 show dose-dependent induction of cell death, mainly by apoptosis, by all tested compounds in the HCT116 colon cancer cell line. […] In SW620 metastatic colon cancer cells, cell death induction was highly dependent on the number and position of side chains in IQc compounds. […]
Figure 7 Evaluation of the effect of IQc on cell viability using the ViaCount assay. […] Results are expressed as the mean percentage (%) of viable (white), mid-apoptotic (grey) and dead (black) cells ± SEM, of at least three different experiments, for (a) IC50, and for (b) IC65 compound concentrations. a, p < 0.05; b, p < 0.01 from DMSO (vehicle control); c, p < 0.05; and d, p < 0.01 from 5-FU. […]
Taqman Real-time PCR reactions were performed using 1.5 µg of total RNA, using High Capacity RNA to cDNA kit, according to the manufacturer`s instruction. […] The comparative threshold cycle method was used to calculate the amplification factor, where the threshold cycle (Ct) is defined as the cycle number at which the fluorescence passes the fixed threshold intensity level. […]

[3] = test system: KRAS21R G4; experiment: FRET melting competition assay, labelled KRAS21R; type: binding, human; conditions: ligand 1 μM, labelled KRAS21R 0.2 μM
Protocol: (§1) To assess selectivity of the IQc compounds 2d and 3e to different DNA sequences, we performed competitive FRET experiments with 0.2 μM of labelled KRAS21R and F21T G4 and increasing concentrations of two non-fluorescent competitors, 26mer ds-DNA or the human telomeric sequence (HT21). A decrease in ΔTm indicates the displacement of the ligand from labelled G4 by the competitor DNA.
(§2) Figure 3 FRET melting competition assay data for (a) 2d and (b) 3e (1 μM) in complex with KRAS21R and F21T G4s (0.2 μM), with increasing concentrations of non-labeled 26ds, HT21 or KRAS21R (0.4 to 25 μM) competitor, in K-cacodylate buffer (pH 7.4, 60 mM K^+).
(§3) Oligonucleotide sequences were purchased from Eurofins MWG Synthesis GmbH, Germany or STAB VIDA Genomics Lab, Caparica, Lisbon, Portugal. The labelled oligonucleotides used in the FRET assays had attached the donor fluorophore FAM (6-carboxyfluorescein) and the acceptor fluorophore TAMRA (6-carboxytetramethylrhodamine): KRAS21R: 5′-FAM-[…]-TAMRA-3′; KRAS32R: 5′-FAM-[…]-TAMRA-3′; UTR-1: 5′-FAM-GCGGCGGCGGAGG-TAMRA-3′; UTR-2: 5′-FAM-[…]-TAMRA-3; T-Loop:5′-FAM-[…]-TAMRA-3′; F21T: 5′-FAM-[…]-TAMRA-3′. Non-labelled oligonucleotides were used in FRET competition assays and in the spectroscopic studies: ds26: - d(5′-CAATCGGATCGAATT CGATCCGATTG-3′); KRAS21R: 5′-[…]-3′; HT21: 5′-[…]-3′. […]

[4] = test system: F21T G4; experiment: FRET melting competition assay, labelled F21T; type: binding, human; conditions: ligand 1 μM, labelled F21T 0.2 μM
Protocol: as §1, §2, §3

SMILES	Reduction of mouse KRAS promoter activity [1] [%]	Cell death induced, SW620 [2] [%]	Concentration of HT21 required to displace ligand from its complex with KRAS21R [3] [µM]	Fold higher concentration of HT21 required to displace ligand from its complex with KRAS21R [3]	Concentration of competitor KRAS21R reducing the induced thermal stability of F21T by 50% [4] [µM]
C[n+]1ccc(-c2c3nc(c(-c4cc[n+](C)cc4)c4ccc([nH]4)c(-c4cc[n+](C)cc4)c4ccc([nH]4)c(-c4cc[n+](C)cc4)c4nc2C=C4)C=C3)cc1 [TMPyP4, reference compound]	80	> 20	–	–	–
CCN(CC)CCCNc1ccc2c(c1)[nH]c1c2c[n+](C)c2ccc(NCCCN(CC)CC)cc12.[Cl-] [3e]	–	–	> 10	more than 50 fold	2
